Assay results published in ChEMBL document CHEMBL1201862, “PubChem BioAssay data set” (2004).
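96-well plates; 48 h exposure; 5 concentrations. Endpoints by linear interpolation between flanking doses. Not reached: highest tested concentration assigned. GI50: concentration for 50% inhibition of growth.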 Active and inactive are the calls of the source. Rule as the data show it: active = GI50 up to about 1.1 µM and inactive = higher.

Tests used:
Assay in all cases: NCI anticancer screen, dose series, 48 h
MOLT-4 = system: MOLT-4
SW-620 = system: SW-620
SK-MEL-28 = system: SK-MEL-28
HCC 2998 = system: HCC 2998
SK-MEL-5 = system: SK-MEL-5
SN12C = system: SN12C
OVCAR-4 = system: OVCAR-4
M14 = system: M14
OVCAR-3 = system: OVCAR-3
RPMI-8226 = system: RPMI-8226
A498 = system: A498
ACHN = system: ACHN
K562 = system: K562
UACC-257 = system: UACC-257
HL-60 = system: HL-60
NCI-H23 = system: NCI-H23
SR = system: SR
HCT-15 = system: HCT-15
SF-539 = system: SF-539

Compound	GI50 (MOLT-4)	GI50 (SW-620)	GI50 (SK-MEL-28)	GI50 (HCC 2998)	GI50 (SK-MEL-5)	GI50 (SN12C)	GI50 (OVCAR-4)	GI50 (M14)	GI50 (OVCAR-3)	GI50 (RPMI-8226)	GI50 (A498)	GI50 (ACHN)	GI50 (K562)	GI50 (UACC-257)	GI50 (HL-60)	GI50 (NCI-H23)	GI50 (SR)	GI50 (HCT-15) [µM]	GI50 (SF-539)
Cc1c(Cl)cc(C(C)(C)C)c(O)c1Cc1c(C)c(Cl)cc(C(C)(C)C)c1O	0.818 µM (active)	1.81 µM (inactive)	2.33 µM (inactive)	0.796 µM (active)	0.762 µM (active)	1.87 µM (inactive)	1.26 µM (inactive)	2.42 µM (inactive)	0.436 µM (active)	0.273 µM (active)	1.26 µM (inactive)	1.29 µM (inactive)	0.752 µM (active)	1.36 µM (inactive)	1.17 µM (inactive)	0.656 µM (active)	2.18 µM (inactive)	2.21	1.97 µM (inactive)
CN(C)CC1CCC/C(=C\c2ccc(OC(=O)c3ccc(Cl)cc3)cc2)C1=O (stereo not given)	0.661 µM (active)	1.1 µM (active)	3.15 µM (inactive)	9.95 µM (inactive)	3.69 µM (inactive)	2.14 µM (inactive)	2.8 µM (inactive)	1.68 µM (inactive)	1.6 µM (inactive)	0.465 µM (active)	7.26 µM (inactive)	3.57 µM (inactive)	0.912 µM (active)	4.29 µM (inactive)	1.32 µM (inactive)	1.69 µM (inactive)	0.583 µM (active)	1.57	3 µM (inactive)
CCCCCCCCOCC1S(=O)(=O)OCCOS1(=O)=O	> 100 µM (inactive)	> 100 µM (inactive)	> 100 µM (inactive)	> 100 µM (inactive)	> 100 µM (inactive)	> 100 µM (inactive)	> 100 µM (inactive)	> 100 µM (inactive)	> 100 µM (inactive)	> 100 µM (inactive)	> 100 µM (inactive)	> 100 µM (inactive)	> 100 µM (inactive)	> 100 µM (inactive)	> 100 µM (inactive)	> 100 µM (inactive)	40.4 µM (inactive)	> 100	> 100 µM (inactive)
CS(=O)(=O)Nc1ccc2ccccc2c1-c1c(NS(C)(=O)=O)ccc2ccccc12	> 25 µM (inactive)	> 25 µM (inactive)	> 25 µM (inactive)	> 25 µM (inactive)	> 25 µM (inactive)	> 25 µM (inactive)	> 25 µM (inactive)	> 25 µM (inactive)	> 25 µM (inactive)	> 25 µM (inactive)	> 25 µM (inactive)	0.982 µM (active)	> 25 µM (inactive)	> 25 µM (inactive)	> 25 µM (inactive)	> 25 µM (inactive)	> 25 µM (inactive)	> 25	> 25 µM (inactive)
CC1=NC(C)(C)N(O)C1(C)C	> 100 µM (inactive)	> 100 µM (inactive)	> 100 µM (inactive)	> 100 µM (inactive)	> 100 µM (inactive)	> 100 µM (inactive)	> 100 µM (inactive)	> 100 µM (inactive)	> 100 µM (inactive)	> 100 µM (inactive)	> 100 µM (inactive)	> 100 µM (inactive)	> 100 µM (inactive)	–	> 100 µM (inactive)	> 100 µM (inactive)	> 100 µM (inactive)	> 100	> 100 µM (inactive)
O=C(O[C@@H](/C=C/c1ccccc1)P1(=O)N(Cc2ccccc2)[C@@H]2CCCC[C@H]2N1Cc1ccccc1)c1ccccc1	–	3.66 µM (inactive)	6.92 µM (inactive)	7.93 µM (inactive)	1.99 µM (inactive)	3.18 µM (inactive)	1.88 µM (inactive)	3.66 µM (inactive)	5.07 µM (inactive)	2 µM (inactive)	5.62 µM (inactive)	3.95 µM (inactive)	3.25 µM (inactive)	8.75 µM (inactive)	2.94 µM (inactive)	2.64 µM (inactive)	2.68 µM (inactive)	2.99	4.68 µM (inactive)
OC1(CCc2ccccc2)COC(C(F)(F)F)(C(F)(F)F)C1 (stereo not given)	> 100 µM (inactive)	> 100 µM (inactive)	> 100 µM (inactive)	> 100 µM (inactive)	> 100 µM (inactive)	> 100 µM (inactive)	> 100 µM (inactive)	> 100 µM (inactive)	> 100 µM (inactive)	97.3 µM (inactive)	> 100 µM (inactive)	> 100 µM (inactive)	> 100 µM (inactive)	–	> 100 µM (inactive)	> 100 µM (inactive)	> 100 µM (inactive)	> 100	> 100 µM (inactive)
